Data published in US20100317698A1, “Polysubstituted Pyridinylaminoalkylene- and Pyridinyloxyalkylene-Cyclopropanamine Compounds, a Process for Their Preparation and Pharmaceutical Compositions Containing Them” (LES LABORATOIRES SERVIER, priority 2006, published 2010).

Legend:
[1] = test system: cortical release of acetylcholine; assay: In vivo measurement of the release of acetylcholine by intra-cortical microdialysis in the conscious Wistar rat; conditions: 10 mg/kg IP, median prefrontal cortex
Procedure: The systemic administration of nicotine and nicotinic agonists causes an increase, in vivo, of acetylcholine in various regions of the brain (Neurochem. Res., 1996, 21, 1181-1186; Eur. J. Pharmacol., 1998, 351, 181-188; Br. J. Pharmacol., 1999, 127, 1486-1494). A microdialysis probe is implanted in the median prefrontal cortex of male Wistar rats. Six or seven days after they have been implanted, the probes are perfused with Ringer's solution (NaCl 147 mM, KCl 2.7 mM, CaCl2 1.2 mM, MgCl2 1 mM, neostigmine 20 nM) at a flow rate of 1 μl/min, the animal being free to move. After 2 hours in the animal quarters, the product under test is administered by the intraperitoneal route. A group of control animals receives the solvent used for the product. The dialysates (30 μl) are then collected every 30 minutes for 4 hours in order to measure the extra-synaptic cortical concentrations of acetylcholine by means of HPLC with amperometric detection. The results are expressed in pg of acetylcholine/dialysate, and inter-group comparisons are carried out by means of variance analysis, using 2 factors (treatment×time), with measurements being repeated over time.

NMRI mouse = assay: Abdominal contractions induced by phenyl-p-benzoquinone (PBQ) in the NMRI mouse; assay type: in vivo; conditions: 10 mg/kg IP
Procedure: Intraperitoneal administration of an alcoholic solution of PBQ causes abdominal cramps in the mouse (Proc. Soc. Exp. Biol., 1957, 95, 729-731). The cramps are characterised by repeated contractions of the abdominal musculature, accompanied by extension of the hind limbs. Most analgesics antagonise these abdominal cramps (Brit. J. Pharmacol. Chem., 1968, 32, 295-310). At t=0 min., the animals are weighed and the compound being studied is administered by the IP route. A group of control animals is given the solvent used for the compound. At t=30 min., an alcoholic solution of PBQ (0.2%) is administered by the IP route in a volume of 0.25 ml/mouse. Immediately after administration of the PBQ, the animals are placed in cylinders of plexiglass (L=19.5 cm; I.D.=5 cm). From t=35 min. to t=45 min., the animals' reaction is observed and the experimenter notes the total number of abdominal cramps per animal. The results are expressed as the percentage inhibition of the number of abdominal cramps measured in the control animals at the active dose of the compound studied.

[2] = target: T1, type α4β2 central nicotinic receptors (Rattus norvegicus, UniProt P09483+P12390); assay: Displacement of binding of [3H]-cytisine to type α4β2 nicotinic receptors of rat brain; conditions: rat brain membranes, read-out: Affinity (Ki, nM) for type α4β2 receptors
T1 construct: from tissue; host or cells: rat brain membranes
T1 sequence (P09483 31-630): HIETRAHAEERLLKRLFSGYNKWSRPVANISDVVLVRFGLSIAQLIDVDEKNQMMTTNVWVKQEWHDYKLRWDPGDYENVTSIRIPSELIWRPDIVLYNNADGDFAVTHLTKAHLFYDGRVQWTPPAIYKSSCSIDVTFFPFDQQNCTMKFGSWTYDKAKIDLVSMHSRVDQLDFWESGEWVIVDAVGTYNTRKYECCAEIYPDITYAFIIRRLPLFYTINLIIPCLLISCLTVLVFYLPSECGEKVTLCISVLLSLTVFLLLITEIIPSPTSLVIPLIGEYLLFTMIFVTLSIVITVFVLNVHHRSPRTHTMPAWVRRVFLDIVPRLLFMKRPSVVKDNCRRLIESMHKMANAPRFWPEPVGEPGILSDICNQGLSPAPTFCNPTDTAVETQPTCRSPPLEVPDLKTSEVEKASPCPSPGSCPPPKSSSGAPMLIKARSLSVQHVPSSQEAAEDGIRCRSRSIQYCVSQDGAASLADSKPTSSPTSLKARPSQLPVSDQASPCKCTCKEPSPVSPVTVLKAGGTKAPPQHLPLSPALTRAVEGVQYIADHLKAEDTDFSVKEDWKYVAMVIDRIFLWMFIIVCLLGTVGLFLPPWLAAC
T1 sequence (P12390 25-500): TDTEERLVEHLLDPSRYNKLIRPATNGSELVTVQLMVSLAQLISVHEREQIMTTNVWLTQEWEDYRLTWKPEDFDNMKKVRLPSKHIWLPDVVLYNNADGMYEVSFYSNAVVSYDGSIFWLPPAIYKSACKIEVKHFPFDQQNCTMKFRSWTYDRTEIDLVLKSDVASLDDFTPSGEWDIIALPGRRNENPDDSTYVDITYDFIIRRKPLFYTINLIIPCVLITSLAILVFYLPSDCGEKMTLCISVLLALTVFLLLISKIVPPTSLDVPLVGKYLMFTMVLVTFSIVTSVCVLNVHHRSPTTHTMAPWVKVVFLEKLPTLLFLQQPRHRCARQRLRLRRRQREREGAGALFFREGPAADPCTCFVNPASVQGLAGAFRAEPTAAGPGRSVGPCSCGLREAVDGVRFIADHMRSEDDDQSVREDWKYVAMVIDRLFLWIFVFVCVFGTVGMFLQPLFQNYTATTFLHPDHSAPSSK
Procedure: This study, carried out according to the technique described in Molec. Pharmacol., 1990, 39; 9-12, is aimed at determining the affinity of compounds of the present invention for type […] central nicotinic receptors.
Membranes (250 μg/ml) of rat brain are incubated (2 hours, 20° C.) in the presence of a series of concentrations (0.01-10 μM) of each compound of the present invention (diluted starting from a 10 mM stock solution in DMSO) and [^3H]-cytisine (S.A.: 1184 GBq/mmol: 2 nM) in phosphate buffer (NaH2PO4 20 mM, pH 7.4); final volume: 250 μl. The non-specific binding is determined by incubating membranes in the presence of 10 μM of (−)nicotine. The affinity of the compounds of the present invention for type α4β2 central nicotinic receptors is characterised by determination of the Ki.

| Molecule | increase of the release of acetylcholine [1] | melting point | inhibition of the number of abdominal cramps versus control animals (NMRI mouse) | Ki [2] |
| --- | --- | --- | --- | --- |
| CNC1(COc2cnc(Cl)c(-c3ccc(C#N)cc3)c2)CC1.Cl [Example 18, 4-(2-Chloro-5-{[1-(methylamino)cyclopropyl]methoxy}pyridin-3-yl)benzonitrile hydrochloride] | +104% | 215 to 220 °C |  |  |
| CNC1(COc2cnc(C)c(-c3ccncc3)c2)CC1.Cl.Cl.Cl [Example 81, Methyl(1-{[(2-methyl-3,4′-bipyridin-5-yl)oxy]methyl}cyclopropyl)amine trihydrochloride] |  | 130 to 138 °C | −90% |  |
| CNC1(CNc2cnc(Cl)c(-c3ccncc3)c2)CC1.Cl.Cl [Example 106, 2-Chloro-N-{[1-(methylamino)cyclopropyl]methyl}-3,4′-bipyridin-5-amine dihydrochloride] |  | 100 to 110 °C | −87% |  |
| [1-({[5-(3-Methoxyphenyl)pyridin-3-yl]oxy}methyl)cyclopropyl]methylamine dihydrochloride [Example 1] | +72% |  |  | 7.9 nM |
